The target of this assay is recombinant human integrin αvβ6 (Homo sapiens (Human), UniProt P06756+P18564). Put plainly: Solid Phase Integrin αvβ6 Binding Assay (Examples B1, B2). As to conditions: TGFβ1 LAP ligand, values given in four ranges, read-out: αvβ6 Inhibition IC50 (nM)-range. As to the method:
(§1) Microplates were coated with recombinant human integrin αvβ6 (2 μg/mL) in PBS (100 μL/well 25° C., overnight). The coating solution was removed, washed with wash buffer (0.05% Tween 20; 0.5 mM MnCl2; in 1×TBS). The plate was blocked with 200 μL/well of Block Buffer (1% BSA; 5% sucrose; 0.5 mM MnCl2; in 1×TBS) at 37° C. for 2 h. Dilutions of testing compounds and recombinant TGFβ1 LAP (0.67 μg/mL) in binding buffer (0.05% BSA; 2.5% sucrose; 0.5 mM MnCl2; in 1×TBS) were added. The plate was incubated for 2 hours at 25° C., washed, and incubated for 1 hour with Biotin-Anti-hLAP. Bound antibody was detected by peroxidase-conjugated streptavidin. The IC50 values for testing compounds were calculated by four-parameter logistic regression.
The compounds tested were compound samples prepared according to procedures described in the Synthetic Examples section, with the stereochemical purity as indicated in the Examples.
as §1, with “A third series of exemplary compounds was selected for testing in the solid phase integrin αvβ6 binding assay. The compounds tested were compound samples prepared according to procedures described in the Synthetic Examples section, with the stereochemical purity as indicated in the Examples. As in Example B1, microplates were coated” for “Microplates were coated”, “calculated by a four-parameter logistic” for “calculated by four-parameter logistic”
Chain of recombinant human integrin αvβ6 (P06756 31-992): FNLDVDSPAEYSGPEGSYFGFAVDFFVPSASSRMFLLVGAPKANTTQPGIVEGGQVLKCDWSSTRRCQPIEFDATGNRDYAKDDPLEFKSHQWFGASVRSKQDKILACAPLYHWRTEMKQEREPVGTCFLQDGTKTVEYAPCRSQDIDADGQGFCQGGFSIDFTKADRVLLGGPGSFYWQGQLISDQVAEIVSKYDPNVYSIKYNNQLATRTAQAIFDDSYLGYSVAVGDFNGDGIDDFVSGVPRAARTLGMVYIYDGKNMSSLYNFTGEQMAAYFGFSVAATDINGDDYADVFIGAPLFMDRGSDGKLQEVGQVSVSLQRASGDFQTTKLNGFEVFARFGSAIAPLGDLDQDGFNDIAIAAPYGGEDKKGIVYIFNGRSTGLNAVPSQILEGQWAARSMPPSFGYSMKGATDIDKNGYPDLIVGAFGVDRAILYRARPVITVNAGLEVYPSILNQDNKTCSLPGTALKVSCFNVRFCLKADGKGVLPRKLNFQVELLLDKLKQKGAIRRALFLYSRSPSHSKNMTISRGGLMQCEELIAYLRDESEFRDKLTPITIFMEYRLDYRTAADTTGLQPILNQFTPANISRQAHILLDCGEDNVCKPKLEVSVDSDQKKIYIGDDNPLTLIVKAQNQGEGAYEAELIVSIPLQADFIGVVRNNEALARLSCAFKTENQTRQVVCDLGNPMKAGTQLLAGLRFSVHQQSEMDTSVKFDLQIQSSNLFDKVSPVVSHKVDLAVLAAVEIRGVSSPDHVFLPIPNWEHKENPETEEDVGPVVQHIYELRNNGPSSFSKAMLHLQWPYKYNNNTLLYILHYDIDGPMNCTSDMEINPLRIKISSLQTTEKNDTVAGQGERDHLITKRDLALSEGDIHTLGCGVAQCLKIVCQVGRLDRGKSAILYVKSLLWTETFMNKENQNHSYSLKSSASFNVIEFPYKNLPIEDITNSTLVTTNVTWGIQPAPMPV
Chain of recombinant human integrin αvβ6 (P18564 22-707): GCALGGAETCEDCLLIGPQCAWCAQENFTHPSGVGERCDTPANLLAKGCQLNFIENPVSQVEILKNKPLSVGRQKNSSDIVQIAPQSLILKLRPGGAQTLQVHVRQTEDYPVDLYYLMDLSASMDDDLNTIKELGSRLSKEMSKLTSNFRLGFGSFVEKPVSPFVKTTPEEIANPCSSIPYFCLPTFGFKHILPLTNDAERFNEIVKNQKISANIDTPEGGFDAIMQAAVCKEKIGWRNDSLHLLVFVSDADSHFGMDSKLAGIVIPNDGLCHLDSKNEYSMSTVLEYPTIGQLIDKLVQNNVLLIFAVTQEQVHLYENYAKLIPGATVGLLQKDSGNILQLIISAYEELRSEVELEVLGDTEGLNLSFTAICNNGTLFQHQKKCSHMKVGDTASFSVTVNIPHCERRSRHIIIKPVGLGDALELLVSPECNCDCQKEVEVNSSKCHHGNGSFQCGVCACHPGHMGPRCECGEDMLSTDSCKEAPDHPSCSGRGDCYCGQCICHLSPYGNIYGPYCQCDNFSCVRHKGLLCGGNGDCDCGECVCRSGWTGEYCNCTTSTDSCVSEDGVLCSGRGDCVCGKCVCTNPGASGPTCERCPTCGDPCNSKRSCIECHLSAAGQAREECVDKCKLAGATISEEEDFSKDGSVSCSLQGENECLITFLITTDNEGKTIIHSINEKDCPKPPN
On to `COCCN(CCCCc1ccc2c(n1)NCCC2)CC[C@H](Nc1nc(C)nc2cc(F)ccc12)C(=O)O` [Compound 12, (S)-2-((7-fluoro-2-methylquinazolin-4-yl)amino)-4-((2-methoxyethyl) (4-(5,6,7,8-tetrahydro-1,8-naphthyridin-2-yl)butyl)amino) butanoic acid], for which the IC50 was under 50 nM.

As for `COCCN(CCCCc1ccc2c(n1)NCCC2)CC[C@H](Nc1nc(C)nc2ccccc12)C(=O)O` [Compound 10, (S)-4-((2-methoxyethyl) (4-(5,6,7,8-tetrahydro-1,8-naphthyridin-2-yl)butyl)amino)-2-((2-methylquinazolin-4-yl)amino) butanoic acid], the half-inhibitory concentration (IC50) was under 50 nM.

`CO[C@H](C)CN(CCCCc1ccc2c(n1)NCCC2)CC[C@H](Nc1cc(-c2ccccc2)ncn1)C(=O)O` [Compound 80, (S)-4-(((R)-2-methoxypropyl) (4-(5,6,7,8-tetrahydro-1,8-naphthyridin-2-yl)butyl)amino)-2-((6-phenylpyrimidin-4-yl)amino) butanoic acid]: the IC50 was under 50 nM.

For the compound `O=C(O)[C@H](CCN(CCCCc1ccc2c(n1)NCCC2)CCOc1cc(F)cc(F)c1)Nc1ncnc2ccccc12` [Compound 47, (S)-4-((2-(3,5-difluorophenoxy)ethyl) (4-(5,6,7,8-tetrahydro-1,8-naphthyridin-2-yl)butyl)amino)-2-(quinazolin-4-ylamino) butanoic acid], the IC50 is under 50 nM.

Regarding `O=C(O)[C@H](CCN(CCCCc1ccc2c(n1)NCCC2)CCOc1ccccc1)Nc1ncnc2[nH]ncc12` [Compound 90, (S)-2-((1H-pyrazolo[3,4-d]pyrimidin-4-yl)amino)-4-((2-phenoxyethyl) (4-(5,6,7,8-tetrahydro-1,8-naphthyridin-2-yl)butyl)amino) butanoic acid], the IC50 was under 50 nM.

In the case of `CO[C@H](C)CN(CCCCc1ccc2c(n1)NCCC2)CC[C@H](Nc1ncnc2c1cnn2C)C(=O)O` [Compound 74, (S)-4-(((R)-2-methoxypropyl) (4-(5,6,7,8-tetrahydro-1,8-naphthyridin-2-yl)butyl)amino)-2-((1-methyl-1H-pyrazolo[3,4-d]pyrimidin-4-yl)amino) butanoic acid], the IC50 is under 50 nM.

Turning to `COC[C@@H](F)CN(CCCCc1ccc2c(n1)NCCC2)CC[C@H](Nc1cc(-c2ccccc2)ncn1)C(=O)O` [Compound 128, (S)-4-(((S)-2-fluoro-3-methoxypropyl) (4-(5,6,7,8-tetrahydro-1,8-naphthyridin-2-yl)butyl)amino)-2-((6-phenylpyrimidin-4-yl)amino) butanoic acid], the IC50 was over 1000 nM.

On to `COC[C@@H](F)CN(CCCCc1ccc2c(n1)NCCC2)CC[C@H](Nc1ncnc2ccccc12)C(=O)O` [Compound 31, (S)-4-(((S)-2-fluoro-3-methoxypropyl) (4-(5,6,7,8-tetrahydro-1,8-naphthyridin-2-yl)butyl)amino)-2-(quinazolin-4-ylamino) butanoic acid], for which the IC50 was under 50 nM.

In the case of `COc1cccc2c(N[C@@H](CCN(CCCF)CCCCc3ccc4c(n3)NCCC4)C(=O)O)ncnc12` [Compound 43, (S)-4-((3-fluoropropyl) (4-(5,6,7,8-tetrahydro-1,8-naphthyridin-2-yl)butyl)amino)-2-((8-methoxyquinazolin-4-yl)amino) butanoic acid], the IC50 was under 50 nM.

As for `Cc1nc(N[C@@H](CCN(CCCCc2ccc3c(n2)NCCC3)CCOc2ccc(F)cc2)C(=O)O)c2ccc(F)cc2n1` [Compound 40, (S)-2-((7-fluoro-2-methylquinazolin-4-yl)amino)-4-((2-(4-fluorophenoxy)ethyl) (4-(5,6,7,8-tetrahydro-1,8-naphthyridin-2-yl)butyl)amino) butanoic acid], the IC50 is under 50 nM.

Consider `O=C(O)[C@H](CCN(CCCCc1ccc2c(n1)NCCC2)CC(F)F)Nc1ccncn1` [Compound 120, (S)-4-((2,2-difluoroethyl) (4-(5,6,7,8-tetrahydro-1,8-naphthyridin-2-yl)butyl)amino)-2-(pyrimidin-4-ylamino) butanoic acid], for which the IC50 was over 1000 nM.

In general, IC50 refers to the concentration that inhibits the measured activity by half.

Values taken from patent US11419869B2, “Dosage forms and regimens for amino acid compounds” (Pliant Therapeutics, Inc., priority 2019, dated 2022).
